The values that follow come from patent US11571430B2, “Platinum(II) ammine selenourea complexes and methods of treating cancer” (KING FAHD UNIVERSITY OF PETROLEUM AND MINERALS, priority 2020, dated 2023).

Entries after “also recorded” stand apart in the source; their conditions may differ.

Type in all cases: cell-based, human
The test system of data set [1] is HeLa (cervical cancer cells). The data set is described as follows: In vitro cytotoxicity, MTT assay, HeLa. Conditions: for IC50: 72 h incubation, HeLa cervical cancer cells, read-out: IC50 values against HeLa; for in vitro cytotoxicity in words, HeLa: compared to cisplatin. The procedure:
(§1) The solutions of Pt(II) complexes 1-5 and cisplatin (classical standard control) with 1.0 μM, 5.0 μM, 10.0 μM, 25.0 μM, 50.0 μM and 100.0 μM concentrations were prepared in DMEM. The cancer cells, HeLa (cervical cancer), A549 (Lung cancer) and HCT-116 (colon cancer) were seeded and maintained in quadruplicate in a 96-well tissue culture plate at 5×10^4 cells per well in 200 μL of the same medium. The cancer cells were incubated for 24 hours before the treatment. All compounds were dissolved in 50 vol % DMSO (50/50 v/v DMSO/DMEM). Therefore, DMSO was used as a negative control. The final DMSO concentration in each well, was less than 0.1%. The cancer cells were treated with the synthesized complexes (1-5) along with cisplatin and the resultant cultures were incubated for 72 h. The medium of wells was discarded and 100 μL DMEM containing MTT (3-(4,5-dimethylthiazol-2-yl)-2,5-diphenyltetrazolium bromide) (5 mg/mL) was added to the wells and incubated in a CO2 incubator at 37° C. in the dark for 4 hrs. After incubation, a purple colored formazan (artificial chromogenic dye, a product of the reduction of water insoluble tetrazolium salts e.g., MTT by dehydrogenases and reductases) in the cells is produced and appeared as dark crystals in the bottom of the wells. The medium of culture was discarded from each well carefully to avoid disruption of the monolayer. 100 μL of isopropanol was added in each well. The solution was thoroughly mixed in the wells to dissolve the formazan crystals which ultimately results into a purple solution. The absorbance of the 96-well plate was taken at 570 nm with Mithras 2LB943 against reagent blank.
(§2) The in vitro cytotoxicity of the prepared compounds (1-5) and cisplatin in DMSO was examined by the MTT assay against three human cancer cells namely, HeLa (cervical cancer cells), A549 (lung cancer cells) and HCT-116 (colon cancer cells). The survival of the cells as a function of concentration of compounds 1-5 (and compared to cisplatin) is shown in FIGS. 1A-1F, 2, 3A-3F, 4, 5A-5F, and 6. […] See Altoum A O S, Alhoshani A, Alhosaini K, et al (2017a) Synthesis, characterization and in vitro cytotoxicity of platinum(II) complexes of selenones [Pt(selenone)2Cl2]. J Coord Chem 70:1020-1031; Altoum A O S, Vančo J, Křikavová R, et al (2017b) Synthesis, structural characterization and cytotoxicity evaluation of platinum(II) complexes of heterocyclic selenones. Polyhedron 128:2-8; Ahmad S, Altoum A O S, Vančo J, et al (2018) Synthesis, crystal structure and anticancer activity of tetrakis(N-isopropylimidazolidine-2-selenone)platinum(II) chloride. J Mol Struct 1152:232-236; and Alhoshani A, Seliman A A A, Altoum A O, et al (2019) Synthesis, X-ray structure and in vitro cytotoxicity of trans-diammineplatinum(II) complexes of selenones, trans-[Pt(NH3)2(selenone)2](NO3)2. Polyhedron 158:234-240, each incorporated herein by reference in their entirety.
(Tetrazolium assays rely on reduction of a dye to a coloured formazan, in cell work by metabolically active cells.)

A further data set concerns A549 (lung cancer cells). Description: In vitro cytotoxicity, MTT assay, A549. The conditions noted are these: for IC50: 72 h incubation, A549 lung cancer cells, read-out: IC50 values against A549; for in vitro cytotoxicity in words, A549: A549, compared to cisplatin. The procedure:
as §1, §2

Data set [2] relates to HCT-116 (colon cancer cells). The data set is described as follows: In vitro cytotoxicity, MTT assay, HCT-116. Conditions: for IC50: 72 h incubation, HCT-116 colon cancer cells, read-out: IC50 values against HCT-116; for in vitro cytotoxicity in words, HCT-116: HCT-116, compared to cisplatin. Here is the method:
as §1, §2

As to `N.N.[Cl][Pt][Cl]` [Cisplatin, cis-diamminedichloridoplatinum(II), reference compound], the concentration for half-maximal inhibition (IC50) (in general, the concentration needed to halve the response being measured) in data set [1] is 8.1 µM; in the data set with A549 (lung cancer cells), 12.5 µM; in data set [2] it was greater than 100 µM.
In the case of `N.N.NC(N)=[Se][Pt+2][Se]=C(N)N.O=[N+]([O-])[O-].O=[N+]([O-])[O-]` [Complex 1, [Pt(NH3)2(Seu)2](NO3)2], in data set [1], the IC50 was greater than 100 µM and the “in vitro cytotoxicity in words, HeLa” value was “no activity”. Besides, in the data set with A549 (lung cancer cells), the concentration for half-maximal inhibition (IC50) was greater than 100 µM and the “in vitro cytotoxicity in words, A549” value is “no activity”. Moreover, in data set [2], the IC50 is 5.4 µM and the “in vitro cytotoxicity in words, HCT-116” value is recorded as “has activity against HCT-116 only; also recorded: excellent cytotoxic activity”.
Regarding `CNC(NC)=[Se][Pt+2][Se]=C(NC)NC.N.N.O=[N+]([O-])[O-].O=[N+]([O-])[O-]` [Complex 2, [Pt(NH3)2(Me2Seu)2](NO3)2], in data set [1], the IC50 worked out at 12.2 µM and the “in vitro cytotoxicity in words, HeLa” value was “cytotoxicity comparable to cisplatin”. Moreover, in the data set on A549 (lung cancer cells), the concentration for half-maximal inhibition (IC50) stood at 54 µM and the “in vitro cytotoxicity in words, A549” value is “almost inactive”. Also, in data set [2], the IC50 is greater than 100 µM and the “in vitro cytotoxicity in words, HCT-116” value is “almost inactive”.
On to `C1CNC(=[Se][Pt+2][Se]=C2NCCCN2)NC1.N.N.O=[N+]([O-])[O-].O=[N+]([O-])[O-]` [Complex 4, [Pt(NH3)2(DiazSe)2](NO3)2], for which, in data set [1], the IC50 was found to be 3.7 µM and the “in vitro cytotoxicity in words, HeLa” value is “cytotoxicity higher than cisplatin; also recorded: excellent cytotoxic activity”. For the same molecule, in the data set with A549 (lung cancer cells), the IC50 came to 6.74 µM and the “in vitro cytotoxicity in words, A549” value is listed as “cytotoxicity higher than cisplatin; also recorded: excellent cytotoxic activity”. Further, in data set [2], the IC50 was determined as 7.7 µM and the “in vitro cytotoxicity in words, HCT-116” value is given as “cytotoxicity higher than cisplatin; also recorded: excellent cytotoxic activity”.
Regarding `C1CCNC(=[Se][Pt+2][Se]=C2NCCCCN2)NC1.N.N.O=[N+]([O-])[O-].O=[N+]([O-])[O-]` [Complex 5, [Pt(NH3)2(DiapSe)2](NO3)2], in data set [1], the IC50 was greater than 100 µM and the “in vitro cytotoxicity in words, HeLa” value is reported as “ineffective”. In the data set on A549 (lung cancer cells), the IC50 is greater than 100 µM and the “in vitro cytotoxicity in words, A549” value is on record as “ineffective”. Moreover, in data set [2], the IC50 was greater than 100 µM and the “in vitro cytotoxicity in words, HCT-116” value is “ineffective”.
